pEC50, pIC50: −log10 of the molar value. Bounds are passed on as bounds.

The target of one series is T1, Presenilin-1 (Homo sapiens, UniProt P49768). Nature of the series: Modulation of human gamma-secretase presenilin-1 subunit expressed in CHO cells coexpressing human APP assessed as decrease in amyloid beta 40 generation after 24 hrs by ELISA. The series is classed as cell-based.
Details: not given; call rule not given here
For `CC(C)=CCC/C(C)=C/CC/C(C)=C/COC(=O)C1(C)CCc2c(C)c(OCC(=O)O)c(C)c(C)c2O1` (stereo unspecified), the pIC50 was 4.60.
Regarding `CC(C)=CCC/C(C)=C/CC/C(C)=C/Cn1c2ccc(Cl)cc2c2ccc(C(C)C(=O)O)cc21` (stereo unspecified), the pIC50 was 4.59.
On the same count and under the same terms, next, `C/C(=C\COC(=O)C1(C)CCc2c(C)c(OCC(=O)O)c(C)c(C)c2O1)CCC[C@H](C)CCC[C@H](C)CCCC(C)C` (stereo partly specified): 4.44; `CCCCCCCCOc1c(C)c(C)c2c(c1C)CCC(C)(C(=O)O)O2` (stereo unspecified): less than 4.30; `C/C(=C\COc1c(C)c(C)c2c(c1C)CCC(C)(C(=O)O)O2)CCC[C@H](C)CCC[C@H](C)CCCC(C)C` (stereo partly specified): 4.38.
As for `CCCCCCCCCCCCCCOC(=O)C1(C)CCc2c(C)c(OCC(=O)O)c(C)c(C)c2O1` (stereo unspecified), the pIC50 is 4.47.
Consider `COC(=O)COc1c(C)c(C)c2c(c1C)CCC(C)(CCCC(C)CCCC(C)CCCC(C)C)O2` (stereo unspecified), for which the pIC50 is less than 4.00.
On the same count and under the same terms, the figure for `CCCCCCCCCCCCCCOc1c(C)c(C)c2c(c1C)CCC(C)(C(=O)O)O2` (stereo unspecified) is 4.54.

Another series has as its target T1, Presenilin-1. Nature of the series: Modulation of human gamma-secretase presenilin-1 subunit expressed in CHO cells coexpressing human APP assessed as increase in amyloid beta 38 generation after 24 hrs by ELISA. The series is classed as cell-based.
Details: not given
With `CC(C)=CCC/C(C)=C/CC/C(C)=C/COC(=O)C1(C)CCc2c(C)c(OCC(=O)O)c(C)c(C)c2O1` (stereo unspecified), the pEC50 was 6.00.
The same measure, in the same setting: the figure for `CC(C)=CCC/C(C)=C/CC/C(C)=C/Cn1c2ccc(Cl)cc2c2ccc(C(C)C(=O)O)cc21` (stereo unspecified) is 5.70; for `C/C(=C\COC(=O)C1(C)CCc2c(C)c(OCC(=O)O)c(C)c(C)c2O1)CCC[C@H](C)CCC[C@H](C)CCCC(C)C` (stereo partly specified) it is 4.89; for `CCCCCCCCOc1c(C)c(C)c2c(c1C)CCC(C)(C(=O)O)O2` (stereo unspecified) it is less than 4.30.
Regarding `C/C(=C\COc1c(C)c(C)c2c(c1C)CCC(C)(C(=O)O)O2)CCC[C@H](C)CCC[C@H](C)CCCC(C)C` (stereo partly specified), the pEC50 is 5.00.
Same read-out and setting: next, `CCCCCCCCCCCCCCOC(=O)C1(C)CCc2c(C)c(OCC(=O)O)c(C)c(C)c2O1` (stereo unspecified): 5.22; `COC(=O)COc1c(C)c(C)c2c(c1C)CCC(C)(CCCC(C)CCCC(C)CCCC(C)C)O2` (stereo unspecified): less than 4.00.
With `CCCCCCCCCCCCCCOc1c(C)c(C)c2c(c1C)CCC(C)(C(=O)O)O2` (stereo unspecified), the pEC50 was 5.05.

System in a further series: not listed separately
Nature of the series: Micelle formation by compound at 5 to 100 uM by dynamic light scattering assay. The series is classed as physicochemical.
Details: not given
For the compound `CC(C)=CCC/C(C)=C/CC/C(C)=C/COC(=O)C1(C)CCc2c(C)c(OCC(=O)O)c(C)c(C)c2O1` (stereo unspecified), the Activity result is “Not Active”.
Still for that read-out and setting: the entry for `CC(C)=CCC/C(C)=C/CC/C(C)=C/Cn1c2ccc(Cl)cc2c2ccc(C(C)C(=O)O)cc21` (stereo unspecified) is “Not Active”; for `C/C(=C\COC(=O)C1(C)CCc2c(C)c(OCC(=O)O)c(C)c(C)c2O1)CCC[C@H](C)CCC[C@H](C)CCCC(C)C` (stereo partly specified) it is “Not Active”; for `CCCCCCCCOc1c(C)c(C)c2c(c1C)CCC(C)(C(=O)O)O2` (stereo unspecified) it is “Not Active”.
Still for that read-out and setting: the entry for `C/C(=C\COc1c(C)c(C)c2c(c1C)CCC(C)(C(=O)O)O2)CCC[C@H](C)CCC[C@H](C)CCCC(C)C` (stereo partly specified) is “Not Active”.
On the same count and under the same terms, the entry for `CCCCCCCCCCCCCCOC(=O)C1(C)CCc2c(C)c(OCC(=O)O)c(C)c(C)c2O1` (stereo unspecified) is “Not Active”; for `CCCCCCCCCCCCCCOc1c(C)c(C)c2c(c1C)CCC(C)(C(=O)O)O2` (stereo unspecified) it is “Not Active”.

System in the next series: not listed separately
The series is described as follows: Micelle aggregation by compound at 5 to 100 uM by dynamic light scattering assay. The series is classed as physicochemical.
Details: not given
With `CC(C)=CCC/C(C)=C/CC/C(C)=C/COC(=O)C1(C)CCc2c(C)c(OCC(=O)O)c(C)c(C)c2O1` (stereo unspecified), the Activity entry is given as “Not Active”.
On the same count and under the same terms, next, `CC(C)=CCC/C(C)=C/CC/C(C)=C/Cn1c2ccc(Cl)cc2c2ccc(C(C)C(=O)O)cc21` (stereo unspecified): “Not Active”; `C/C(=C\COC(=O)C1(C)CCc2c(C)c(OCC(=O)O)c(C)c(C)c2O1)CCC[C@H](C)CCC[C@H](C)CCCC(C)C` (stereo partly specified): “Not Active”.
Same read-out and setting: next, `CCCCCCCCOc1c(C)c(C)c2c(c1C)CCC(C)(C(=O)O)O2` (stereo unspecified): “Not Active”; `C/C(=C\COc1c(C)c(C)c2c(c1C)CCC(C)(C(=O)O)O2)CCC[C@H](C)CCC[C@H](C)CCCC(C)C` (stereo partly specified): “Not Active”.
On the same count and under the same terms, next, `CCCCCCCCCCCCCCOC(=O)C1(C)CCc2c(C)c(OCC(=O)O)c(C)c(C)c2O1` (stereo unspecified): “Not Active”; `CCCCCCCCCCCCCCOc1c(C)c(C)c2c(c1C)CCC(C)(C(=O)O)O2` (stereo unspecified): “Not Active”.

The next series deals with T1, Presenilin-1. The series is described as follows: Modulation of human gamma-secretase presenilin-1 subunit expressed in CHO cells coexpressing human APP assessed as increase in amyloid beta 38 generation at EC50 after 24 hrs by ELISA relative to control. It is filed as cell-based.
Details: not given
On to `CC(C)=CCC/C(C)=C/CC/C(C)=C/COC(=O)C1(C)CCc2c(C)c(OCC(=O)O)c(C)c(C)c2O1` (stereo unspecified), for which the Activity came to 35%.
The same measure, in the same setting: the figure for `CC(C)=CCC/C(C)=C/CC/C(C)=C/Cn1c2ccc(Cl)cc2c2ccc(C(C)C(=O)O)cc21` (stereo unspecified) is 80%; for `C/C(=C\COC(=O)C1(C)CCc2c(C)c(OCC(=O)O)c(C)c(C)c2O1)CCC[C@H](C)CCC[C@H](C)CCCC(C)C` (stereo partly specified) it is 135%.
Same read-out and setting: next, `C/C(=C\COc1c(C)c(C)c2c(c1C)CCC(C)(C(=O)O)O2)CCC[C@H](C)CCC[C@H](C)CCCC(C)C` (stereo partly specified): 35%.
In the case of `CCCCCCCCCCCCCCOC(=O)C1(C)CCc2c(C)c(OCC(=O)O)c(C)c(C)c2O1` (stereo unspecified), the Activity was 95%.
Still for that read-out and setting: the figure for `CCCCCCCCCCCCCCOc1c(C)c(C)c2c(c1C)CCC(C)(C(=O)O)O2` (stereo unspecified) is 40%.

For the next series, the target named is T1, Presenilin-1. Nature of the series: Modulation of human gamma-secretase presenilin-1 subunit expressed in CHO cells coexpressing human APP assessed as decrease in amyloid beta 42 generation after 24 hrs by ELISA. The series is classed as cell-based. The conditions noted are these: read-out: IC50.
Regarding `CC(C)=CCC/C(C)=C/CC/C(C)=C/COC(=O)C1(C)CCc2c(C)c(OCC(=O)O)c(C)c(C)c2O1` (stereo unspecified), the pIC50 is 4.57.
On the same count and under the same terms, next, `CC(C)=CCC/C(C)=C/CC/C(C)=C/Cn1c2ccc(Cl)cc2c2ccc(C(C)C(=O)O)cc21` (stereo unspecified): 5.40.
Consider `C/C(=C\COC(=O)C1(C)CCc2c(C)c(OCC(=O)O)c(C)c(C)c2O1)CCC[C@H](C)CCC[C@H](C)CCCC(C)C` (stereo partly specified), for which the pIC50 was 4.62.
With `CCCCCCCCOc1c(C)c(C)c2c(c1C)CCC(C)(C(=O)O)O2` (stereo unspecified), the pIC50 was 4.24.
Still for that read-out and setting: the figure for `C/C(=C\COc1c(C)c(C)c2c(c1C)CCC(C)(C(=O)O)O2)CCC[C@H](C)CCC[C@H](C)CCCC(C)C` (stereo partly specified) is 4.59.
For `CCCCCCCCCCCCCCOC(=O)C1(C)CCc2c(C)c(OCC(=O)O)c(C)c(C)c2O1` (stereo unspecified), the pIC50 was 4.66.
Same read-out and setting: the figure for `COC(=O)COc1c(C)c(C)c2c(c1C)CCC(C)(CCCC(C)CCCC(C)CCCC(C)C)O2` (stereo unspecified) is less than 4.00; for `CCCCCCCCCCCCCCOc1c(C)c(C)c2c(c1C)CCC(C)(C(=O)O)O2` (stereo unspecified) it is 4.85.

Still in this series, the particulars now being: read-out: pIC50 (converted).
In the case of `CC(C)=CCC/C(C)=C/CC/C(C)=C/COC(=O)C1(C)CCc2c(C)c(OCC(=O)O)c(C)c(C)c2O1` (stereo unspecified), the IC50 is 39.8 µM.
Consider `CC(C)=CCC/C(C)=C/CC/C(C)=C/Cn1c2ccc(Cl)cc2c2ccc(C(C)C(=O)O)cc21` (stereo unspecified), for which the IC50 is 31.6 µM.
On the same count and under the same terms, next, `C/C(=C\COC(=O)C1(C)CCc2c(C)c(OCC(=O)O)c(C)c(C)c2O1)CCC[C@H](C)CCC[C@H](C)CCCC(C)C` (stereo partly specified): 39.8 µM; `CCCCCCCCOc1c(C)c(C)c2c(c1C)CCC(C)(C(=O)O)O2` (stereo unspecified): 25.1 µM; `C/C(=C\COc1c(C)c(C)c2c(c1C)CCC(C)(C(=O)O)O2)CCC[C@H](C)CCC[C@H](C)CCCC(C)C` (stereo partly specified): 39.8 µM.
For the compound `CCCCCCCCCCCCCCOC(=O)C1(C)CCc2c(C)c(OCC(=O)O)c(C)c(C)c2O1` (stereo unspecified), the IC50 is 39.8 µM.
The same measure, in the same setting: the figure for `CCCCCCCCCCCCCCOc1c(C)c(C)c2c(c1C)CCC(C)(C(=O)O)O2` (stereo unspecified) is 31.6 µM.
